# Reference: US10314827B2, “Methods of use of cyclopamine analogs” (Infinity Pharmaceuticals, Inc., priority 2006, dated 2019)
# Where two headings read alike, the source gives them in different places.
# Assays:
# Hedgehog pathway = experiment: C3H10T1/2 osteoblast differentiation assay (alkaline phosphatase readout); type: cell-based, Mouse; conditions: C3H10T1/2 cells, sonic Hedgehog 250 ng/ml, AP activity normalized to total protein, read-out: Differentiation Assay EC50 (approximate EC50 for inhibition)
# Excerpt: Hedgehog pathway specific cancer cell killing effects may be ascertained using the following assay. C3H10T1/2 cells differentiate into osteoblasts when contacted with the sonic hedgehog peptide (Shh-N). Upon differentiation; these osteoblasts produce high levels of alkaline phosphatase (AP) which can be measured in an enzymatic assay (Nakamura et al., X BBRC (1997) 237:465). Compounds that block the differentiation of C3H10T1/2 into osteoblasts (a Shh dependent event) can therefore be identified by a reduction in AP production (van der Horst et al., Bone (2003) 33:899). The assay details are described below. The results approximate (EC50 for inhibition) of the differentiation assay is shown below in Table 1.
# Mouse embryonic mesoderm fibroblasts C3H10T1/2 cells (obtained from ATCC) were cultured in Basal MEM Media (Gibco/Invitrogen) supplemented with 10% heat inactivated FBS (Hyclone), 50 units/ml penicillin and 50 ug/ml streptomycin (Gibco/Invitrogen) at 37° C. With 5% CO2 in air atmosphere.
# C3H10T1/2 cells were plated in 96 wells with a density of 8×10^3 cells/well. Cells were grown to confluence (72 hrs). After sonic Hedgehog (250 ng/ml), and/or compound treatment, the cells were lysed in 110 μL of lysis buffer (50 mm Tris ph 7.4, 0.1% tritonx100), plates were sonicated and lysates spun through 0.2 μm PVDF plates (Corning). 40 μL of lysates was assayed for AP activity in alkaline buffer solution (Sigma) containing 1 mg/ml p-Nitrophenyl Phosphate. After incubating for 30 min at 37° C., the plates were read on an Envision plate reader at 405 nm. Total protein was quantified with a BCA protein assay kit from Pierce according to manufacturer's instructions. AP activity was normalized against total protein.
# murine Gli-1 = experiment: q-RT-PCR of HH pathway genes in harvested BXPC-3 tumors, murine Gli-1; type: in vivo; conditions: tumors harvested 4 hours post last dose, 40 mg/kg/day orally, vs vehicle group
# Protocol: (§1) The activity of Compound 42 was further tested in a human pancreatic model: BXPC-3 cells were implanted subcutaneously into the flanks of the right legs of mice. On day 42 post-tumor implant, the mice were randomized into two groups to receive either Vehicle (30% HPBCD) or Compound 42. Compound 42 administered orally at 40 mg/kg/day. […] At the end of the study, the tumors were harvested 4 hours post the last dose to evaluate an on target response by q-RT-PCR analysis of the HH pathway genes.
# human Gli-1 = experiment: q-RT-PCR of HH pathway genes in harvested BXPC-3 tumors, human Gli-1; type: in vivo; conditions: tumors harvested 4 hours post last dose, 40 mg/kg/day orally
# Protocol: as §1
# NCI-H929 = experiment: Multiple myeloma colony growth in methylcellulose, NCI-H929; type: cell-based, human; conditions: NCI-H929, treated 96 hours, colonies quantified 10-21 days later
# Protocol: (§2) The ability of Compound 42 to inhibit the growth of multiple myeloma cells (MM) in vitro was tested, using human multiple myeloma cells lines (NCI-H929 and KMS12) and primary clinical bone marrow specimens derived from patients with MM. The cells were treated for 96 hours with Compound, washed, then plated in methylcellulose. Tumor colonies were quantified 10-21 days later as an indicator of cell growth potential following treatment.
# RL = experiment: NHL colony formation in methylcellulose, RL; type: cell-based, human; conditions: 1.0 um, 72 hours
# Protocol: (§3) The ability of Compound 42 to inhibit the in vitro growth of human cell lines derived from patients with non-Hodgkin's lymphoma (cell lines RL and Jeko-1) and Hodgkin's disease (cell line L428) was studied. Each of the cell lines was treated for 72 hours with Compound 42 (1.0 um) followed by plating in methylcellulose.
# RS4-11 = experiment: ALL colony formation in methylcellulose, RS4-11; type: cell-based; conditions: RS4-11, treated 72 hours
# Protocol: (§4) The effect of Compound 42 on the growth of two of these cell lines, treated in vitro for 72 hours, was also studied. Following treatment, cells were washed and plated in methylcellulose.
# [1] = tested on: primary clinical bone marrow specimens derived from patients with MM; experiment: Multiple myeloma colony growth in methylcellulose, primary clinical specimens; type: cell-based, human; conditions: primary clinical MM samples, treated 96 hours, colonies quantified 10-21 days later
# Protocol: as §2
# REH = experiment: ALL colony formation in methylcellulose, REH; type: cell-based; conditions: treated 72 hours
# Protocol: as §4
# [2] = tested on: Gli-responsive luciferase reporter; experiment: Gli-responsive luciferase reporter transient transfection assay, REH; type: cell-based; conditions: 1 um, vehicle alone 6.73
# Excerpt: (§5) The activity of Compound 42 (1 um) against three pre-B cell acute lymphocytic leukemia cell lines (REH, RS4-11, and Nalm-6) was studied, using a transient transfection assay in which a Gli-responsive luciferase reporter was transiently transfected into cells. Treatment with Compound 42 repressed luciferase activity compared to a vehicle treated control (Table 4).
# KMS12 = experiment: Multiple myeloma colony growth in methylcellulose, KMS12; type: cell-based, human; conditions: KMS12, treated 96 hours, colonies quantified 10-21 days later
# Protocol: as §2
# KG1a = experiment: MDS colony formation in methylcellulose, KG1a; type: cell-based, human; conditions: 1.0 um, 72 hours
# Protocol: (§6) The ability of Compound 42 to inhibit the in vitro growth of human cell lines derived from patients with acute myeloid leukemia (AML, cell line U937) and myelodysplastic syndrome (MDS, cell line KG1 and KG1a) was studied. Each of the cell lines was treated for 72 hours with Compound 42 (1.0 um) followed by plating in methylcellulose.
# L428 = experiment: Hodgkin's disease colony formation in methylcellulose, L428; type: cell-based, human; conditions: L428 (HD), 1.0 um, 72 hours
# Protocol: as §3
# Oral multi-dose MTD = conditions: mouse, in vivo, mice
# Jeko-1 = experiment: NHL colony formation in methylcellulose, Jeko-1; type: cell-based, human; conditions: Jeko-1 (NHL), 1.0 um, 72 hours
# Protocol: as §3
# KG1 = experiment: MDS colony formation in methylcellulose, KG1; type: cell-based, human; conditions: 1.0 um, 72 hours
# Protocol: as §6
# U937 = experiment: AML colony formation in methylcellulose, U937; type: cell-based, human; conditions: 1.0 um, 72 hours
# Protocol: as §6
# [3] = tested on: Gli-responsive luciferase reporter; experiment: Gli-responsive luciferase reporter transient transfection assay, RS4-11; type: cell-based; conditions: RS4-11, 1 um; vehicle alone 12.97
# Excerpt: as §5
# Gli-1 = experiment: Medulloblastoma model: Gli-1 mRNA expression in subcutaneously implanted tumors; type: in vivo, mouse; conditions: single oral dose, 8 hours post dose
# Protocol: (§7) The activity of Compound 42 was also evaluated in a transgenic mouse model of medulloblastoma. Mice that are heterozygous for loss of function mutations in the tumor suppressors Patched1 (Ptch1) and Hypermethylated in Cancer (Hic1) develop spontaneous medulloblastoma. […] When passaged as subcutaneous allografts, these tumors grow aggressively and are Hedgehog pathway-dependent. This model was employed to evaluate the efficacy of orally administered Compound, and to correlate activity with drug exposure in plasma and tumors.
# medulloblastoma = experiment: Medulloblastoma model: Ptch1/Hic1 subcutaneous allografts, tumor growth; type: in vivo, mouse
# Protocol: as §7
# The approximate effective daily oral dose for 50% inhibition of tumor growth (ED50) is 4 mg/kg.
# BXPC-3 cells = experiment: Pancreatic cancer model: subcutaneous BXPC-3 tumors in mice; type: in vivo, human; conditions: orally 40 mg/kg/day, 25 daily doses, p=0.0309
# Protocol: as §1
# [4] = tested on: Gli-responsive luciferase reporter; experiment: Gli-responsive luciferase reporter transient transfection assay, Nalm-6; type: cell-based; conditions: Nalm-6, 1 um; vehicle alone 8.42
# Excerpt: as §5
# LX22 cells = experiment: Lung cancer model: LX22 primary SCLC xenograft; type: in vivo, human
# Excerpt: To test the activity of Compound 42 in a human SCLC tumor model, LX22 cells were implanted subcutaneously into the flank of the right leg. LX22 is primary xenograft model of SCLC derived from chemo-naive patients, which has been maintained by mouse to mouse passaging. This tumor responds to etoposide/carboplatin chemotherapy in way that closely resembles a clinical setting. LX22 regresses during chemotherapy treatment, goes through a period of remission, and then begins to recur. In the LX22 model, Compound single agent activity and its ability to modulate the chemoresistant recurrence was tested. On day 32 post tumor implant, mice were randomized into three dosing groups to receive Vehicle (30% HBPCD), Compound, or the chemotherapy combination of etoposide and carboplatin (E/P). […] Etoposide was administered i.v at 12 mg/kg on days 34, 35, 36, and 48, while Carboplatin was administered i.v. At 60 mg/kg on days 34, 41, and 48, post tumor implant. On day 50, the E/P treated mice were further randomized to receive either Vehicle (30% HPBCD) or Compound follow up treatment.
compound,measurement,setting,value
CC1=C2C[C@H]3[C@@H](CC[C@@H]4CC(=O)CC[C@@]43C)[C@@H]2CC[C@@]2(C1)O[C@@H]1C[C@H](C)CN(CCNCC(=O)c3ccccc3)[C@H]1[C@H]2C [Compound 13],EC50,Hedgehog pathway,< 20 nM
CC1=C2C[C@H]3[C@@H](CC[C@@H]4C[C@H](NS(C)(=O)=O)CC[C@@]43C)[C@@H]2CC[C@]12O[C@@H]1C[C@H](C)CN[C@H]1[C@H]2C [Compound 55],EC50,"Hedgehog pathway; Mus musculus, C3H 10T1/2",< 20 nM
CC1=C2C[C@H]3[C@@H](CC[C@@H]4CC(=O)CC[C@@]43C)[C@@H]2CC[C@@]2(C1)O[C@@H]1C[C@H](C)CN(CCNC(=O)CCc3ccccc3)[C@H]1[C@H]2C [Compound 23],EC50,"Hedgehog pathway; Mus musculus, C3H 10T1/2",< 20 nM
CC1=C2C[C@H]3[C@@H](CC=C4C[C@@H](OCc5ccccc5)CC[C@@]43C)[C@@H]2CC[C@@]2(C1)O[C@@H]1C[C@H](C)CN(C(=O)OCc3ccccc3)[C@H]1[C@H]2C [Compound 7],EC50,Hedgehog pathway,> 100 nM
CC1=C2C[C@H]3[C@@H](CC[C@@H]4CC(=O)CC[C@@]43C)[C@@H]2CC[C@@]2(C1)O[C@@H]1C[C@H](C)CN(CCN(C)C(=O)CCc3ccccc3)[C@H]1[C@H]2C [Compound 24],EC50,"Hedgehog pathway; Mus musculus, C3H 10T1/2",< 20 nM
CC1=C2C[C@H]3[C@@H](CC[C@@H]4C[C@H](NS(C)(=O)=O)CC[C@@]43C)[C@@H]2CC[C@@]2(C1)O[C@@H]1C[C@H](C)CN[C@H]1[C@H]2C [Compound 42],murine Gli-1 mRNA levels (q-RT-PCR),murine Gli-1,robust down-regulation
same,human Gli-1 modulation (q-RT-PCR),human Gli-1,no modulation
same,growth of cells relative to untreated control (100%),NCI-H929,less than 25%
same,% colony formation with Compound 42 (relative to vehicle control),RL,14.3%
same,colony formation with Compound (relative to vehicle control) - 1° plating,RS4-11,71
same,colony formation with Compound (relative to vehicle control) - 2° plating,RS4-11; replating of colonies,11
same,growth of cells relative to untreated control (100%),[1],less than 25%
same,colony formation with Compound (relative to vehicle control) - 1° plating,REH,63
same,colony formation with Compound (relative to vehicle control) - 2° plating,REH; replating of colonies,9
same,Relative luc activity (+Compound),[2],1.12
same,growth of cells relative to untreated control (100%),KMS12,less than 25%
same,% colony formation with Compound 42 (relative to vehicle control),KG1a,34.6%
same,% colony formation with Compound 42 (relative to vehicle control),L428,21.4%
same,MTD,Oral multi-dose MTD,40 mg/kg/day
same,% colony formation with Compound 42 (relative to vehicle control),Jeko-1,27.4%
same,% colony formation with Compound 42 (relative to vehicle control),KG1,25.1%
same,EC50,"Hedgehog pathway; Mus musculus, C3H 10T1/2",< 20 nM
same,% colony formation with Compound 42 (relative to vehicle control),U937,43.4%
same,Relative luc activity (+Compound),[3],1.31
same,HH pathway down-regulation measured by Gli-1 mRNA expression,Gli-1,dose-dependent down-regulation
same,ED50,"medulloblastoma; Mus musculus, daily oral dosing, approximate, read-out: effective daily oral dose for 50% inhibition of tumor growth (ED50)",~4 mg/kg
same,inhibition of tumor growth,medulloblastoma; daily (QD) PO administration,"dose dependent inhibition of tumor growth, with frank tumor regression seen at higher doses"
same,long term survival following cessation of treatment,medulloblastoma; treated QD for 21 days,> 60 days
same,tumor re-growth following cessation of treatment,medulloblastoma; treated QD for 21 days,little to no tumor re-growth
same,reduction of tumor volume growth compared to vehicle control,BXPC-3 cells,40%
same,Relative luc activity (+Compound),[4],1.44
same,"tumor recurrence after etoposide/carboplatin (E/P), treated vs vehicle group","LX22 cells; follow up treatment from day 50, 40 mg/kg/day orally, 35 consecutive doses, p=0.0101",substantial delay in tumor recurrence
same,"single agent activity, treated vs vehicle groups","LX22 cells; orally 40 mg/kg/day, 16 consecutive doses",no measurable difference
CC1=C2C[C@H]3[C@@H](CC[C@@H]4CCCC[C@@]43C)[C@@H]2CC[C@@]2(C1)O[C@@H]1C[C@H](C)CN[C@H]1[C@H]2C [Compound 9],EC50,"Hedgehog pathway; Mus musculus, C3H 10T1/2",> 100 nM
CC(=O)NCCN1C[C@@H](C)C[C@H]2O[C@]3(CC[C@@H]4C(=C(C)C3)C[C@H]3[C@H]4CC[C@@H]4CC(=O)CC[C@@]43C)[C@H](C)[C@@H]21 [Compound 21],EC50,"Hedgehog pathway; Mus musculus, C3H 10T1/2",20 to 100 nM
CC1=C2C[C@H]3[C@@H](CC[C@@H]4CC(=O)CC[C@@]43C)[C@@H]2CC[C@@]2(C1)O[C@@H]1C[C@H](C)CN[C@H]1[C@H]2C [Compound 1],EC50,"Hedgehog pathway; Mus musculus, C3H 10T1/2",< 20 nM
CC(=O)N(C)CCN1C[C@@H](C)C[C@H]2O[C@]3(CC[C@@H]4C(=C(C)C3)C[C@H]3[C@H]4CC[C@@H]4CC(=O)CC[C@@]43C)[C@H](C)[C@@H]21 [Compound 22],EC50,"Hedgehog pathway; Mus musculus, C3H 10T1/2",< 20 nM
CC1=C2C[C@H]3[C@@H](CC[C@@H]4CC(=O)CC[C@@]43C)[C@@H]2CC[C@@]2(C1)O[C@@H]1C[C@H](C)CN(C(C)C)[C@H]1[C@H]2C [Compound 10],EC50,"Hedgehog pathway; Mus musculus, C3H 10T1/2",> 100 nM
CC1=C2C[C@H]3[C@@H](CCC4=CC(=O)CC[C@@]43C)[C@@H]2CC[C@@]2(C1)O[C@@H]1C[C@H](C)CN(CCN(C)C)[C@H]1[C@H]2C [Compound 20],EC50,Hedgehog pathway,< 20 nM
CC(=O)O[C@H]1CC[C@@]2(C)[C@H](CC[C@H]3[C@@H]4CC[C@@]5(CC(C)=C4C[C@@H]32)O[C@@H]2C[C@H](C)CN[C@H]2[C@H]5C)C1 [Compound 35],EC50,"Hedgehog pathway; Mus musculus, C3H 10T1/2",< 20 nM
